Experimental data published in ChEMBL document CHEMBL3885861, “Open TG-GATES”.

Species on record: Rattus norvegicus
Experiment: Open TG-GATES - Regimen: Single
Type: toxicity, organism-based, Sprague-Dawley
Design: regimen Single, gender Male, age 6 weeks
Conditions: in vivo, po, route gavage; for APTT / Bas / Eos / Fbg / Hb / Ht / Lym / MCH / MCHC / MCV / Mono / Neu / PT / Plat / RBC / Ret / WBC: tissue Blood; for KIDNEY_L / KIDNEY_R / KIDNEY_TOTAL: tissue Kidney; for LIVER: tissue Liver
[1] = 100 mg/kg, 3 h, tissue Plasma, dose level Low
[2] = 100 mg/kg, 6 h, tissue Plasma, dose level Low
[3] = 100 mg/kg, 9 h, tissue Plasma, dose level Low
[4] = 100 mg/kg, 24 h, dose level Low
[5] = 100 mg/kg, 24 h, tissue Plasma, dose level Low

C[C@H](CS)C(=O)N1CCC[C@H]1C(=O)O [CAPTOPRIL]
gamma-GTP (0 mg/kg, 24 h, tissue Plasma, dose level Control): 1 IU/L | TERMINAL_BW (100 mg/kg, 3 h, dose level Low): 224.3 g | APTT (100 mg/kg, 3 h, dose level Low): 16.3 s | Bas (100 mg/kg, 3 h, dose level Low): 0% | Eos (100 mg/kg, 3 h, dose level Low): 1% | Fbg (100 mg/kg, 3 h, dose level Low): 207 mg/dL | Hb (100 mg/kg, 3 h, dose level Low): 13.1 g/dL | Ht (100 mg/kg, 3 h, dose level Low): 40.2% | Lym (100 mg/kg, 3 h, dose level Low): 82.2% | MCH (100 mg/kg, 3 h, dose level Low): 21.1 pg | MCHC (100 mg/kg, 3 h, dose level Low): 32.7% | MCV (100 mg/kg, 3 h, dose level Low): 64.4 fL | Mono (100 mg/kg, 3 h, dose level Low): 4.8% | Neu (100 mg/kg, 3 h, dose level Low): 12.2% | PT (100 mg/kg, 3 h, dose level Low): 11.9 s | Plat (100 mg/kg, 3 h, dose level Low): 123.2 x10_4/uL | RBC (100 mg/kg, 3 h, dose level Low): 624.2 x10_4/ul | Ret (100 mg/kg, 3 h, dose level Low): 7.4% | KIDNEY_L (100 mg/kg, 3 h, dose level Low): 1 g | KIDNEY_R (100 mg/kg, 3 h, dose level Low): 1 g | KIDNEY_TOTAL (100 mg/kg, 3 h, dose level Low): 2.1 g | ALP [1]: 996 IU/L | ALT [1]: 35.6 IU/L | AST [1]: 67 IU/L | BUN [1]: 13.8 mg/dL | CRE [1]: 0.5 mg/dL | DBIL [1]: 0.008 mg/dL | GLC [1]: 205.2 mg/dL | IP [1]: 9.7 mg/dL | K [1]: 4.9 meq/L | LDH [1]: 113.6 IU/L | Na [1]: 137.8 meq/L | PL [1]: 131.8 mg/dL | RALB [1]: 3.6 g/dL | TBIL [1]: 0.4 mg/dL | TC [1]: 70.4 mg/dL | TG [1]: 68 mg/dL | TP [1]: 5.5 g/dL | gamma-GTP [1]: 2 IU/L | TERMINAL_BW (100 mg/kg, 6 h, dose level Low): 225.5 g | APTT (100 mg/kg, 6 h, dose level Low): 16.3 s | Bas (100 mg/kg, 6 h, dose level Low): 0% | Eos (100 mg/kg, 6 h, dose level Low): 1% | Hb (100 mg/kg, 6 h, dose level Low): 12.9 g/dL | Ht (100 mg/kg, 6 h, dose level Low): 39.5% | Lym (100 mg/kg, 6 h, dose level Low): 76.4% | MCH (100 mg/kg, 6 h, dose level Low): 21.8 pg | MCHC (100 mg/kg, 6 h, dose level Low): 32.8% | MCV (100 mg/kg, 6 h, dose level Low): 66.5 fL | Mono (100 mg/kg, 6 h, dose level Low): 5.8% | Neu (100 mg/kg, 6 h, dose level Low): 17% | PT (100 mg/kg, 6 h, dose level Low): 12.2 s | Plat (100 mg/kg, 6 h, dose level Low): 113.6 x10_4/uL | RBC (100 mg/kg, 6 h, dose level Low): 595.2 x10_4/ul | Ret (100 mg/kg, 6 h, dose level Low): 7.9% | WBC (100 mg/kg, 6 h, dose level Low): 126.2 x10_2/uL | KIDNEY_L (100 mg/kg, 6 h, dose level Low): 1.1 g | KIDNEY_R (100 mg/kg, 6 h, dose level Low): 1.1 g | KIDNEY_TOTAL (100 mg/kg, 6 h, dose level Low): 2.2 g | ALP [2]: 794.8 IU/L | ALT [2]: 30.8 IU/L | AST [2]: 55.6 IU/L | BUN [2]: 17.4 mg/dL | CRE [2]: 0.6 mg/dL | DBIL [2]: 0.028 mg/dL | GLC [2]: 192.4 mg/dL | IP [2]: 9.6 mg/dL | K [2]: 4.9 meq/L | LDH [2]: 73.8 IU/L | Na [2]: 138.6 meq/L | PL [2]: 130.6 mg/dL | RALB [2]: 3.7 g/dL | TBIL [2]: 0.4 mg/dL | TC [2]: 69.8 mg/dL | TG [2]: 62.6 mg/dL | TP [2]: 5.3 g/dL | gamma-GTP [2]: 1.6 IU/L | TERMINAL_BW (100 mg/kg, 9 h, dose level Low): 220.6 g | APTT (100 mg/kg, 9 h, dose level Low): 16.3 s | Bas (100 mg/kg, 9 h, dose level Low): 0% | Eos (100 mg/kg, 9 h, dose level Low): 1% | Fbg (100 mg/kg, 9 h, dose level Low): 205.8 mg/dL | Hb (100 mg/kg, 9 h, dose level Low): 12.8 g/dL | Ht (100 mg/kg, 9 h, dose level Low): 38.8% | Lym (100 mg/kg, 9 h, dose level Low): 74% | MCH (100 mg/kg, 9 h, dose level Low): 21.6 pg | MCHC (100 mg/kg, 9 h, dose level Low): 33% | MCV (100 mg/kg, 9 h, dose level Low): 65.6 fL | Mono (100 mg/kg, 9 h, dose level Low): 5.4% | Neu (100 mg/kg, 9 h, dose level Low): 19.2% | PT (100 mg/kg, 9 h, dose level Low): 12.1 s | Plat (100 mg/kg, 9 h, dose level Low): 119.2 x10_4/uL | RBC (100 mg/kg, 9 h, dose level Low): 591.8 x10_4/ul | Ret (100 mg/kg, 9 h, dose level Low): 8.2% | KIDNEY_L (100 mg/kg, 9 h, dose level Low): 1 g | KIDNEY_R (100 mg/kg, 9 h, dose level Low): 1 g | KIDNEY_TOTAL (100 mg/kg, 9 h, dose level Low): 2 g | LIVER (100 mg/kg, 9 h, dose level Low): 9 g | ALP [3]: 891.4 IU/L | ALT [3]: 30.6 IU/L | AST [3]: 59.2 IU/L | BUN [3]: 13.4 mg/dL | CRE [3]: 0.4 mg/dL | DBIL [3]: 0.084 mg/dL | GLC [3]: 202.4 mg/dL | K [3]: 4.7 meq/L | LDH [3]: 71 IU/L | Na [3]: 138.6 meq/L | PL [3]: 122.4 mg/dL | RALB [3]: 3.6 g/dL | TBIL [3]: 0.3 mg/dL | TC [3]: 65.2 mg/dL | TG [3]: 55.8 mg/dL | TP [3]: 5.2 g/dL | gamma-GTP [3]: 1.8 IU/L | TERMINAL_BW [4]: 234.4 g | APTT [4]: 17.2 s | Bas [4]: 0% | Eos [4]: 1.4% | Hb [4]: 12.8 g/dL | Ht [4]: 38.4% | Lym [4]: 71.8% | MCH [4]: 21.1 pg | MCHC [4]: 33.2% | MCV [4]: 63.6 fL | Mono [4]: 6.4% | Neu [4]: 20% | PT [4]: 11.6 s | Plat [4]: 114.1 x10_4/uL | RBC [4]: 604.4 x10_4/ul | Ret [4]: 8.7% | WBC [4]: 82.6 x10_2/uL | KIDNEY_L [4]: 1.1 g | KIDNEY_R [4]: 1.1 g | KIDNEY_TOTAL [4]: 2.3 g | LIVER [4]: 11.3 g | ALT [5]: 40.8 IU/L | AST [5]: 68.8 IU/L | BUN [5]: 15.8 mg/dL | CRE [5]: 0.6 mg/dL | Ca [5]: 11.1 mg/dL | DBIL [5]: 0.058 mg/dL | GLC [5]: 189.4 mg/dL | IP [5]: 8.5 mg/dL | K [5]: 4.6 meq/L | LDH [5]: 113 IU/L | Na [5]: 139 meq/L | PL [5]: 147.6 mg/dL | RALB [5]: 4 g/dL | TBIL [5]: 0.3 mg/dL | TC [5]: 78.8 mg/dL | TG [5]: 92.8 mg/dL | TP [5]: 5.8 g/dL
